For nine compounds, EC50 and inhibition results are on record in patent US10653688B2, “6-(6-membered heteroaryl and aryl)isoquinolin-3-yl carboxamides and preparation and use thereof” (Samumed, LLC, priority 2017, dated 2020).

SMILES strings stand for the structures. pEC50: −log10 of the molar value. Read-outs that look alike come from different tables or passages of the source. Some results are limits rather than exact numbers.

A word on the pEC50: it is the EC50 on a negative log10 scale, so that one unit is a factor of ten. What is called inhibition is the share of the control response that was lost under treatment. A word on the EC50: it is the concentration needed to bring the measured effect to its halfway point.

Test [1] deals with Wnt activity (SW480 colon carcinoma cells stably expressing the Sp5-Luc reporter gene). The experiment in a line: Wnt activity screening assay (Sp5-Luc reporter gene assay). It is filed as cell-based, human. The settings on record: Homo sapiens; for pEC50: 36 to 48 hours; for inhibition at 10 µM: read-out: percent inhibition at 10 μM (given for EC50 >10 μM), 10 μM. Summed up: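 EC50 values come from a variable-slope four-parameter fit of luminescence normalized to DMSO-only wells. The read-out follows 36–48 h incubation at 37 °C, 5% CO2, in DMEM containing 1% fetal bovine serum. Cells are hygromycin-selected SW480 stably expressing firefly luciferase under a Wnt-responsive Sp5 promoter (eight TCF/LEF sites).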
A general note: In a reporter assay the amount or activity of a reporter protein is the signal.

A further test has as its target recombinant GSK3β kinase (Homo sapiens (Human), UniProt P49841). The experiment in a line: GSK3β kinase assay (Ser/Thr 09 peptide Z-lyte, FRET).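 Also: FRET read-out as coumarin over fluorescein emission ratio, compounds incubated one hour at room temperature, IC50 from dose-response curve fit.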 The class given is biochemical.
The subject of test [2] is Tau phosphorylation at Ser396 (pSer396) in SH-SY5Y cells. The experiment in a line: Tau phosphorylation at Ser396 (pSer396) cell assay, ELISA/western blot. It is filed as cell-based, human. The settings on record: Homo sapiens; SH-SY5Y cells, overnight (16-18 h); read-out: pSer396 Tau EC50. The procedure: SH-SY5Y cells (human neuroblastoma) were cultured in DMEM/F-12 medium supplemented with 15% FBS, Non-essential Amino Acid and Penicillin/Streptomycin. Two days before treatment, cells were seeded onto 96 well plates at 5×10^4 cells/well.
The above synthesized compounds were screened using the cell assay procedure to assess decrease Tau phosphorylation at Ser396 (pSer396) described below.
DMSO-resuspended compounds were dispensed to 8 wells as a serial titration from 10 μM to 4.6 nM final in medium and cells were exposed overnight (16-18 h) in a humidified incubator at 36.6c before harvest.
Cells were lysed with RIPA buffer complemented with phosphatase and protease inhibitors then lysates were spun down at 12,000 g for 10 min to remove any cellular debris. Lysates are then either directly tested for pSer396 by ELISA (Life Technology, Kit KHB7031) or loaded on NuPage Bis-Tris gels for western blot analysis. Colorimetric detection of ELISA signal is performed by Cytation3 plate reader (Biotek) and the chemiluminescence signal for HRP-linked antibodies used in western blotting is detected using a Carestream Image Station. The same pSer396 antibody is used for detection of pTau in both assays.
Blot densitometry for pSer396 and β-actin were analyzed using ImageJ (NIH) and pSer396 Tau ELISA signal was used to plot, draw the curve fitting, and determine each compounds EC50 in Prism (GraphPad).
(In general: An ELISA detects its analyte on a solid surface through an enzyme-linked reagent.)

Test [3] deals with SW480 colon carcinoma cells. The experiment in a line: Cell viability assay (CellTiter-Glo). It is filed as cell-based, human. The settings on record: Homo sapiens; for pEC50: 96 h, four days, CellTiter-Glo; for inhibition at 10 µM: read-out: percent inhibition at 10 μM (given for EC50 >10 μM), 10 μM. For orientation: ATP-based viability assays read luminescence as a measure of living cells.

The test system of test [4] is LL29 cells (primary human fibroblasts derived from IPF patients), α-smooth muscle actin. The experiment in a line: Inhibition of fibrotic process: TGF-β1-treated primary human fibroblasts, αSMA staining.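 As to all read-outs here: controls were TGF-β1-stimulated wells with DMSO vehicle as the positive reference and cells given DMSO alone as the negative reference.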 It is filed as cell-based. Conditions: Homo sapiens, Fibroblast; for pEC50: 96 h, TGF-β1 20 ng/mL, 4 days, % cells positive for αSMA; for inhibition at 10 µM: read-out: percent inhibition at 10 μM (given for EC50 >10 μM), TGF-β1, αSMA, 10 μM.
Method: Representative compounds were screened using primary human fibroblasts (derived from IPF patients) treated with TGF-β1 to determine their ability to inhibit the fibrotic process.
Human Fibroblast Cell Culture:
Each compound was dissolved in DMSO as a 10 mM stock and used to prepare compound source plates. […] LL29 cells were plated at 1,500 cells/well in 70 μL/well F12 medium supplemented with 1% Fetal Bovine Serum. […] Wells treated with TGF-β1 and containing DMSO were used as positive control, and cells with only DMSO were negative control. Cells were incubated at 37° C. and 5% CO2 for 4 days. Following incubation for 4 days, SYTOX green nucleic acid stain (Life Technologies [Thermo Fisher Scientific]) was added to the wells at a final concentration of 1 μM and incubated at room temperature for 30 min. Cells were then fixed using 4% formaldehyde (Electron Microscopy Sciences), washed 3 times with PBS followed by blocking and permeabilization using 3% Bovine Serum Albumin (BSA; Sigma) and 0.3% Triton X-100 (Sigma) in PBS.

Test [5] deals with IL-6 in human peripheral blood mononuclear cells (huPBMCs). The experiment in a line: IL-6 inhibition in LPS-stimulated human peripheral blood mononuclear cells (HTRF). The class given is cell-based. Conditions: Homo sapiens, PBMC; for pEC50: LPS 50 ng/mL, 22 hours, IL-6 HTRF; for inhibition at 10 µM: read-out: percent inhibition at 10 μM (given for EC50 >10 μM), LPS, IL-6, 10 μM. Put shortly: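 Compound-treated huPBMCs (1×10e6 cells/mL, 1% FBS-RPMI) were stimulated after 2 h with LPS (50 ng/mL) for another 22 h at 37° C. An anti-IL-6 HTRF pair reported IL-6 as the 665/620 nm ratio; activity relative to DMSO, EC50 by 4-parameter Levenberg-Marquardt fitting, duplicates.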

Test [6] concerns the target recombinant DYRK1A kinase (Homo sapiens (Human), UniProt Q13627). The experiment in a line: DYRK1A kinase assay (Ser/Thr 18 peptide Z-lyte, FRET).
Method: Each compound was dissolved in DMSO as a 10 mM stock and used to prepare compound source plates.
This is a non-radioactive assay using fluorescence resonance energy transfer (FRET) between coumarin and fluorescein to detect kinase activity which is represented as a ratio of coumarin emission/fluorescein emission.
The mixture was allowed to incubate with the representative compounds for one hour at room temperature. All reactions were performed in duplicate. Unphosphorylated (“0% Control”) and phosphorylated (“100% control”) forms of Ser/Thr 18 served as control reactions. Additionally, an 11-point dose-response curve of Staurosporine (luM top) was run to serve as a positive compound control.
After incubation, Development Reagent A was diluted in Development Buffer then added to the reaction and allowed to further incubate for one hour at room temperature.
Dose-response curves were generated and inhibitory concentration (IC50) values were calculated using non-linear regression curve fit in the Dotmatics' Studies Software (Bishops Stortford, UK).
Test [7] concerns pT212Tau in Dyrk1a- and MAPT-overexpressing HEK293T cells. Put plainly: Tau phosphorylation at Threonine 212 (pT212Tau) sandwich ELISA in double transfected cells. The settings on record: Homo sapiens, HEK-293T, read-out: Thr212 EC50 (μM).
Test [8] concerns secreted cytokines TNFα, IL-6 and KC-GRO in BV-2 cells (mouse microglial cells). Put plainly: Secreted cytokines in lipopolysaccharide-stimulated mouse glial cell line. The class given is cell-based. The settings on record: LPS 250 ng/mL 5 hours, table does not say which cytokine. The procedure:
Representative compounds were screened using the cell-based assay procedure for secreted cytokines in a Lipopolysaccharide-stimulated mouse glial cell line described below.
BV-2 cells (mouse microglial cells) were cultured in 1:1 DMEM medium supplemented with 10% FBS, and 1% penicillin/streptomycin.
BV-2 cells are plated at 35,000 cells/well in a volume of 100 μl for at least 4 hours before compounds are added. DMSO-resuspended compounds were first dispensed in a 96-well plate and serial diluted from 10 μM to 4.6 nM final concentration in medium. Compounds were added to cells overnight. 250 ng/mL of lipopolysaccharide (Escherichia coli O111:B4, SIGMA) was added for 5 hours. Supernatant is removed and saved for further cytokine detection. The original plates with seeded cells were tested for cytotoxicity by measure of adenosine triphosphate (ATP) release by adding CellTiter-Glo® diluted 1:4 in distilled water (G7573, Promega) and transferring lysed cells to a completely black 96-well plate to be read with the Cytation3. Supernatant was then diluted 1:2 with a diluent from V-PLEX cytokine Kit and directly tested for the secreted cytokines TNFα, IL-6 and KC-GRO using electrochemiluminescence (Meso Scale Discovery). The standard curve for each cytokine was used to convert the electrochemiluminescent signal into pg of protein per mL. The signal was used to plot, draw the curve fitting, and determine each compounds EC50 in Prism (GraphPad).

Setting [9] is: GSK3β kinase, head says EC50, method says IC50, ATP 46 μM.
The mark [10] stands for this setting: DYRK1A kinase, head says EC50, method says IC50, ATP 30 μM.

Chain of recombinant GSK3β kinase (P49841 whole entry): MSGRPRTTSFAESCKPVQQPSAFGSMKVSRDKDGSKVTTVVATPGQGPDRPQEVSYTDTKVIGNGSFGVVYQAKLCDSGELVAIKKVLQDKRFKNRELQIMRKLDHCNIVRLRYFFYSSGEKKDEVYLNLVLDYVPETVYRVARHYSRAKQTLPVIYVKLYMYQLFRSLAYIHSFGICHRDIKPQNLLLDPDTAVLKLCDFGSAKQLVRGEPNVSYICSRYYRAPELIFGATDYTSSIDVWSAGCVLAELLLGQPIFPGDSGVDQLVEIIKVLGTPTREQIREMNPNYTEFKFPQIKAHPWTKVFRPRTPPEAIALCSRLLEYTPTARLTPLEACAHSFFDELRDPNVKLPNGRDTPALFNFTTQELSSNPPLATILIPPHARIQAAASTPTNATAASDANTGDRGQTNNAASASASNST

For the compound `O=C(Nc1cc2cc(-c3cncc(F)c3)ccc2cn1)[C@H]1C[C@H](N2CCOCC2)C1` [Compound 16, trans-N-(6-(5-Fluoropyridin-3-yl)isoquinolin-3-yl)-3-morpholinocyclobutane-1-carboxamide], the pEC50 in test [1] is less than 5.00; on recombinant GSK3β kinase (setting [9]) it was 6.59; in test [2], 5.59; in [3] it was less than 5.00; in test [4], less than 5.00; in test [5], less than 5.00. In test [6] (setting [10]), the pEC50 is 8.10. The inhibition at 10 µM in [1] came out at 24.9%; in [3], 15.5%; in [4] it was 6.7%; in [5], 43.1%. Further, the 50% effective concentration (EC50) in test [7] turned out to be 0.046 µM.

Regarding `CC(=O)Nc1cncc(-c2ccc3cnc(NC(=O)C4CCN(C)CC4)cc3c2)c1` [Compound 47, N-(6-(5-Acetamidopyridin-3-yl)isoquinolin-3-yl)-1-methylpiperidine-4-carboxamide], the pEC50 was 5.90 in test [1]; 6.31 on recombinant GSK3β kinase (setting [9]); less than 5.00 in test [2]; 5.16 in test [3]; 6.25 in [4]; 5.22 in [5]. Moreover, the pEC50 in test [6] (setting [10]) is 8.70.

`O=C(Nc1cc2cc(-c3cncc(OC4CCNCC4)c3)ccc2cn1)C1CC1` [Compound 55, N-(6-(5-(Piperidin-4-yloxy)pyridin-3-yl)isoquinolin-3-yl) cyclopropanecarboxamide]: the pEC50 in test [1] was 6.16; at recombinant GSK3β kinase (setting [9]) it was 5.99; in test [2] it was 5.96; in test [3], 5.93; in test [4], 5.69; in test [5], 5.49. The pEC50 in [6] (setting [10]) was 8.30.

`CNC(=O)c1cncc(-c2ccc3cnc(NC(=O)C4CCN(C)CC4)cc3c2)c1` [Compound 58, N-Methyl-5-(3-(1-methylpiperidine-4-carboxamido)isoquinolin-6-yl) nicotinamide]: the pEC50 was less than 5.00 in test [1]; 5.71 at recombinant GSK3β kinase (setting [9]); less than 5.00 in test [2]; less than 5.00 in test [3]; less than 5.00 in test [4]; 5.01 in test [5]. Besides, the pEC50 in test [6] (setting [10]) was 8.05. The inhibition at 10 µM in [1] was 43.7%; in [3], 30.9%; in [4] it was 44.6%.

As to `Cc1ncc(-c2ccc3cnc(NC(=O)C4CCN(C)CC4)cc3c2)cn1` [Compound 63, 1-Methyl-N-(6-(2-methylpyrimidin-5-yl)isoquinolin-3-yl)piperidine-4-carboxamide], the pEC50 was less than 5.00 in test [1]; less than 5.00 at recombinant GSK3β kinase (setting [9]); less than 5.00 in [2]; less than 5.00 in test [3]; 5.62 in test [4]; less than 5.00 in [5]. The pEC50 in [6] (setting [10]) is 6.66. The inhibition at 10 µM came to 9.9% in test [1], 7.4% in [3] and 7.9% in [5].

For the compound `CN1CCC(C(=O)Nc2cc3cc(-c4cnc(N)nc4)ccc3cn2)CC1` [Compound 65, N-(6-(2-Aminopyrimidin-5-yl)isoquinolin-3-yl)-1-methylpiperidine-4-carboxamide], the pEC50 in test [1] was less than 5.00; at recombinant GSK3β kinase, 5.05; in test [2] it was less than 5.00; in test [3] it was less than 5.00; in test [4], 5.61; in test [5], less than 5.00. Moreover, the pEC50 in [6] is 7.32. Further, the inhibition at 10 µM in test [1] is 32.2%; in test [3], 47.1%; in test [5], 0%.

With `CN(C)[C@H]1CC[C@H](C(=O)Nc2cc3cc(-c4cnccn4)ccc3cn2)CC1` [Compound 70, trans-4-(dimethylamino)-N-(6-(pyrazin-2-yl)isoquinolin-3-yl)cyclohexane-1-carboxamide], the pEC50 in [1] is less than 5.00; at recombinant GSK3β kinase, 6.12; in test [2] it was 5.11; in test [3], less than 5.00; in test [4], 6.20; in test [8], 7.24. The pEC50 was 5.03 in test [5] and 7.77 in test [6]. Also, the inhibition at 10 µM in [1] amounted to 31%; in test [3] it was 35.3%.

On to `O=C(Nc1cc2cc(-c3cnccn3)ccc2cn1)c1ccc(CN2CCOCC2)cc1` [Compound 83, 4-(Morpholinomethyl)-N-(6-(pyrazin-2-yl)isoquinolin-3-yl)benzamide], for which the pEC50 in test [1] is 5.46; at recombinant GSK3β kinase (setting [9]), less than 5.00; in test [2], less than 5.00; in test [3] it was 5.17; in test [4] it was less than 5.00; in test [5], less than 5.00. Also, the pEC50 in [6] (setting [10]) is 8.05. Further, the figures for the inhibition at 10 µM in [4] and in test [5] were 29.6% and 5%, respectively.

Take `O=C(Nc1cc2cc(-c3cncc(OCC4CNC4)n3)ccc2cn1)c1ccc(F)cc1` [Compound 124, N-(6-(6-(azetidin-3-ylmethoxy)pyrazin-2-yl)isoquinolin-3-yl)-4-fluorobenzamide]: the pEC50 is 5.98 in test [1]; 6.74 on recombinant GSK3β kinase (setting [9]); 6.09 in test [2]; 5.62 in test [3]; less than 5.00 in [4]; 5.68 in [5]. For the same compound, in [6] (setting [10]), the pEC50 is 8.22. Besides, the inhibition at 10 µM in test [4] was found to be 5.2%.
